Test systems include SK-OV-3 ovarian; HL-60(TB) leukemia; MALME-3M melanoma; SNB-19 CNS; LOX IMVI melanoma; A549 NSCLC; EKVX NSCLC; HOP-92 NSCLC; MOLT-4 leukemia; NCI-H522 lung.
What all share (test): NCI-60 cell line screen, 48 h

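Cultured in 96-well plates, cells were exposed to test compound for 48 hours across five concentrations. Abbreviation: GI50, concentration required for 50% inhibition of growth. TGI: concentration producing complete growth inhibition.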

As to `CCOC(=O)C1(Cc2ccc3ccccc3c2)CCCCC(=O)N1` (stereo not drawn), the TGI in the experiment on SK-OV-3 ovarian is greater than 100 µM; with HL-60(TB) leukemia, 30.3 µM; with MALME-3M melanoma, 86.5 µM; in the experiment on SNB-19 CNS, greater than 100 µM; with LOX IMVI melanoma, greater than 100 µM; in the experiment on A549 NSCLC, greater than 100 µM. The TGI with EKVX NSCLC was greater than 100 µM; with HOP-92 NSCLC, 59.2 µM; in the experiment on MOLT-4 leukemia it was greater than 100 µM.

Take `C=C1C2Oc3ccccc3C1N(c1ccccc1)O2` (stereo not drawn): the TGI in the experiment with NCI-H522 lung was 80.8 µM; in the experiment with SK-OV-3 ovarian, greater than 100 µM; in the experiment on HL-60(TB) leukemia it was greater than 100 µM; in the experiment with MALME-3M melanoma it was greater than 100 µM; in the experiment with SNB-19 CNS, greater than 100 µM; in the experiment with LOX IMVI melanoma, 36.2 µM. The TGI in the experiment with A549 NSCLC, with EKVX NSCLC and with MOLT-4 leukemia was greater than 100 µM in each case.

For `N#C/C(=C1\SC(N=Nc2ccc(Cl)cc2)C(=O)N1c1ccccc1)c1nc2ccccc2[nH]1` (stereo not drawn), the TGI was 79.9 µM in the experiment on NCI-H522 lung; 35.6 µM with SK-OV-3 ovarian; greater than 100 µM with HL-60(TB) leukemia; 99.1 µM with MALME-3M melanoma; 89.6 µM in the experiment on SNB-19 CNS; 57.4 µM with LOX IMVI melanoma. Further, the TGI in the experiment on A549 NSCLC is 87.3 µM; in the experiment on EKVX NSCLC it was greater than 100 µM; with HOP-92 NSCLC, 51.9 µM.

Take `Cc1cccc(C)c1N1C(=O)C(=O)C(c2nc3ccccc3s2)C(=Nc2cccc3c(=O)[nH][nH]c(=O)c23)C1=O` (stereo not drawn): the TGI with SK-OV-3 ovarian, in the experiment with HL-60(TB) leukemia, in the experiment with MALME-3M melanoma, in the experiment on SNB-19 CNS, in the experiment on LOX IMVI melanoma and in the experiment on A549 NSCLC was greater than 100 µM in each case. Further, the TGI in the experiment on EKVX NSCLC, in the experiment with HOP-92 NSCLC and in the experiment with MOLT-4 leukemia was greater than 100 µM in each case.

On to `CC(=O)[CH-]C(=O)c1ccccc1.CC(=O)[CH-]C(=O)c1ccccc1.CC1(C)OCC(C2OC3OC(C)(C)OC3C2[O-])O1.CC[O-].[Ti+4]` (stereo not drawn), for which the GI50 in the experiment with NCI-H522 lung was 16.5 µM; in the experiment with SK-OV-3 ovarian, 21.9 µM; with MALME-3M melanoma it was 13.4 µM; with SNB-19 CNS, 12.4 µM; in the experiment on LOX IMVI melanoma, 14.7 µM; in the experiment on A549 NSCLC, 16.6 µM. Moreover, the GI50 with EKVX NSCLC is 6.56 µM; in the experiment on HOP-92 NSCLC, 6.84 µM; in the experiment with MOLT-4 leukemia, 15.5 µM. The TGI was found to be 30.8 µM in the experiment with NCI-H522 lung; 61.1 µM in the experiment with SK-OV-3 ovarian; 27.7 µM in the experiment on MALME-3M melanoma; 25.4 µM in the experiment on SNB-19 CNS; 29.8 µM with LOX IMVI melanoma; 40 µM in the experiment on A549 NSCLC. Besides, the values for the TGI with EKVX NSCLC, with HOP-92 NSCLC and with MOLT-4 leukemia were 23.3 µM, 20.6 µM and 82.1 µM, respectively.

For the compound `O=C1/C(=C/c2cccc([N+](=O)[O-])c2)Sc2scc(-c3ccc([N+](=O)[O-])cc3)[n+]21`, the TGI is 90.5 µM in the experiment on SK-OV-3 ovarian; 46.1 µM with SNB-19 CNS; 46.3 µM in the experiment with LOX IMVI melanoma; greater than 100 µM in the experiment with A549 NSCLC; 61.1 µM in the experiment on EKVX NSCLC; 72.3 µM in the experiment with HOP-92 NSCLC. The TGI in the experiment with MOLT-4 leukemia is greater than 100 µM.

Turning to `CN1c2ccccc2SC2C(c3ccccc3)=NOC21` (stereo not drawn), the TGI with NCI-H522 lung is 64.1 µM; in the experiment on SK-OV-3 ovarian, greater than 100 µM; in the experiment with HL-60(TB) leukemia, greater than 100 µM; in the experiment with MALME-3M melanoma, 86.5 µM; in the experiment on SNB-19 CNS it was greater than 100 µM; in the experiment with A549 NSCLC it was greater than 100 µM. Moreover, the TGI with EKVX NSCLC and in the experiment on MOLT-4 leukemia was greater than 100 µM in each case.

With `c1ccc(-c2nc(N3CCCNCC3)c3nc(-c4ccccc4)oc3n2)cc1`, the GI50 with SK-OV-3 ovarian was 1.74 µM; in the experiment with HL-60(TB) leukemia it was 1.83 µM; in the experiment with MALME-3M melanoma, 1.77 µM; in the experiment with SNB-19 CNS it was 1.71 µM; with A549 NSCLC, 1.8 µM; with EKVX NSCLC it was 1.65 µM. Besides, the TGI turned out to be 3.19 µM in the experiment on SK-OV-3 ovarian; 3.55 µM with HL-60(TB) leukemia; 3.33 µM with MALME-3M melanoma; 3.34 µM in the experiment on SNB-19 CNS; 3.71 µM in the experiment with A549 NSCLC; 3.17 µM in the experiment on EKVX NSCLC.

Regarding `N#CC(C#N)=c1c2nsnc2c(=C(C#N)C#N)c2nsnc12`, the TGI in the experiment with NCI-H522 lung worked out at 3.51 µM; in the experiment with HL-60(TB) leukemia, 4.64 µM; in the experiment on MALME-3M melanoma it was 3.11 µM; with SNB-19 CNS, 4.33 µM; with LOX IMVI melanoma it was 3 µM; in the experiment with A549 NSCLC, 10.3 µM. For the same compound, the TGI came to 14.9 µM with EKVX NSCLC and 3.35 µM in the experiment on HOP-92 NSCLC.

Take `O=C(CC1(O)C(=O)Nc2c(Cl)ccc(Cl)c21)c1ccc(Cl)cc1Cl` (stereo not drawn): the TGI in the experiment on SK-OV-3 ovarian was 46.6 µM; in the experiment on MALME-3M melanoma, 34.9 µM; in the experiment with SNB-19 CNS, greater than 100 µM; in the experiment with LOX IMVI melanoma, 28.3 µM; in the experiment with A549 NSCLC, 47.2 µM; in the experiment on EKVX NSCLC, 44 µM. The compound further registered a TGI in the experiment with HOP-92 NSCLC of 49.6 µM.

In the case of `CC(C)(C)OC(=O)NC1CCCC1=O` (stereo not drawn), the TGI with NCI-H522 lung, in the experiment on SK-OV-3 ovarian, in the experiment on MALME-3M melanoma, in the experiment with SNB-19 CNS, with LOX IMVI melanoma and with A549 NSCLC was greater than 100 µM in each case. Also, the TGI in the experiment on EKVX NSCLC, in the experiment on HOP-92 NSCLC and in the experiment with MOLT-4 leukemia was greater than 100 µM throughout.

With `O=C1c2ccccc2-c2c1c1ccccc1c(=O)n2CCNCCn1c2c(c3ccccc3c1=O)C(=O)c1ccccc1-2`, the GI50 was greater than 25 µM in the experiment with NCI-H522 lung; greater than 25 µM with MALME-3M melanoma; 0.333 µM in the experiment on SNB-19 CNS; greater than 25 µM with LOX IMVI melanoma; greater than 25 µM with A549 NSCLC; greater than 25 µM with EKVX NSCLC. Also, the GI50 with MOLT-4 leukemia is 4.84 µM. Further, the TGI in the experiment with NCI-H522 lung, in the experiment on MALME-3M melanoma, with SNB-19 CNS, with LOX IMVI melanoma, in the experiment on A549 NSCLC and in the experiment on EKVX NSCLC was greater than 25 µM each time. In the experiment with MOLT-4 leukemia, this compound gave a TGI of 12.8 µM.

As to `O=C1C2=C(CCC2)Nc2cccc3ncn1c23`, the TGI in the experiment with NCI-H522 lung, in the experiment on SK-OV-3 ovarian, with HL-60(TB) leukemia, with MALME-3M melanoma, with SNB-19 CNS and with LOX IMVI melanoma was greater than 100 µM throughout. Also, the TGI in the experiment with A549 NSCLC, in the experiment with EKVX NSCLC and in the experiment with MOLT-4 leukemia was greater than 100 µM in each case.

The values above are taken from PubChem BioAssay (NCI).
